Laboratory results reported in the supplement of paper PMC10307832.

How the values were obtained:
Assay in all cases: relative viability (nuclei count vs DMSO), 5 days (fraction); higher = more cells survive
A549 = test system: A549
In short: (§1)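 Values are medians from duplicate plates. Each reflects relative viability, defined as the nuclei count of treated wells over that of vehicle wells. Lung cancer cell lines in 1536-well plates were pin-tool dosed one day after seeding with one drug alone or with a fixed anchor-drug dose plus five library-drug doses (not always all listed) in √10 steps, then fixed, stained and imaged at 4× after 5 days.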

Calu-6 = test system: Calu-6
In short: as §1

EBC-1 = test system: EBC-1
In short: as §1

HCC-15 = test system: HCC-15
In short: as §1

IA-LM = test system: IA-LM
In short: as §1

LCLC-103H = test system: LCLC-103H
In short: as §1

NCI-H1299 = test system: NCI-H1299
In short: as §1

NCI-H1703 = test system: NCI-H1703
In short: as §1

UMC-11 = test system: UMC-11
In short: as §1

Q: How did the relative viability (A549; first compound 0.04 µM) turn out when `O=C(O)c1ccc(-c2c[nH]c3ncc(-c4ccccc4)cc23)cc1C1CCCC1` + Cc1nc(NC(=O)N2CCC[C@H]2C(N)=O)sc1-c1ccnc(C(C)(C)C(F)(F)F)c1 [Alpelisib] (partner 2 µM) was run?
A: Its relative viability is 0.728.

Q: And the relative viability (A549; first compound 0.1265 µM)?
A: Its relative viability is 0.787.

Q: And the relative viability (A549; first compound 0.4 µM)?
A: Its relative viability is 0.869.

Q: And the relative viability (A549; first compound 1.265 µM)?
A: Its relative viability is 0.499.

Q: What about the relative viability (Calu-6; first compound 0.04 µM) of the same compound?
A: Its relative viability is 1.04.

Q: What about the relative viability (Calu-6; first compound 0.1265 µM) of the same compound?
A: Its relative viability is 0.978.

Q: And the relative viability (Calu-6; first compound 0.4 µM)?
A: Its relative viability is 0.825.

Q: What about the relative viability (Calu-6; first compound 1.265 µM) of the same compound?
A: Its relative viability is 0.682.

Q: What about the relative viability (EBC-1; first compound 0.04 µM) of the same compound?
A: Its relative viability is 0.848.

Q: What about the relative viability (EBC-1; first compound 0.1265 µM) of the same compound?
A: The relative viability was 0.719.

Q: And the relative viability (EBC-1; first compound 0.4 µM)?
A: The relative viability was 0.939.

Q: And the relative viability (EBC-1; first compound 1.265 µM)?
A: The relative viability was 0.48.

Q: And the relative viability (HCC-15; first compound 0.04 µM)?
A: The relative viability was 0.956.

Q: And the relative viability (HCC-15; first compound 0.1265 µM)?
A: Its relative viability is 0.837.

Q: What about the relative viability (HCC-15; first compound 0.4 µM) of the same compound?
A: The relative viability was 0.849.

Q: And the relative viability (HCC-15; first compound 1.265 µM)?
A: Its relative viability is 0.49.

Q: And the relative viability (IA-LM; first compound 0.04 µM)?
A: The relative viability was 0.77.

Q: And the relative viability (IA-LM; first compound 0.1265 µM)?
A: The relative viability was 0.913.

Q: What about the relative viability (IA-LM; first compound 0.4 µM) of the same compound?
A: Its relative viability is 0.713.

Q: And the relative viability (IA-LM; first compound 1.265 µM)?
A: Its relative viability is 0.737.

Q: What about the relative viability (LCLC-103H; first compound 0.04 µM) of the same compound?
A: The relative viability was 1.01.

Q: And the relative viability (LCLC-103H; first compound 0.1265 µM)?
A: The relative viability was 1.02.

Q: What about the relative viability (LCLC-103H; first compound 0.4 µM) of the same compound?
A: The relative viability was 1.08.

Q: And the relative viability (LCLC-103H; first compound 1.265 µM)?
A: The relative viability was 0.984.

Q: What about the relative viability (NCI-H1299; first compound 0.04 µM) of the same compound?
A: Its relative viability is 1.

Q: And the relative viability (NCI-H1299; first compound 0.1265 µM)?
A: The relative viability was 1.09.

Q: And the relative viability (NCI-H1299; first compound 0.4 µM)?
A: The relative viability was 1.05.

Q: And the relative viability (NCI-H1299; first compound 1.265 µM)?
A: Its relative viability is 0.957.

Q: What about the relative viability (NCI-H1703; first compound 0.1265 µM) of the same compound?
A: Its relative viability is 0.405.

Q: What about the relative viability (NCI-H1703; first compound 0.4 µM) of the same compound?
A: Its relative viability is 0.395.

Q: What about the relative viability (NCI-H1703; first compound 1.265 µM) of the same compound?
A: The relative viability was 0.332.

Q: What about the relative viability (UMC-11; first compound 0.04 µM) of the same compound?
A: The relative viability was 0.938.

Q: And the relative viability (UMC-11; first compound 0.1265 µM)?
A: The relative viability was 1.06.

Q: And the relative viability (UMC-11; first compound 0.4 µM)?
A: Its relative viability is 1.02.

Q: What about the relative viability (UMC-11; first compound 1.265 µM) of the same compound?
A: Its relative viability is 0.929.

Q: Which results are given for `NC(=O)Nc1cc(-c2cccc(F)c2)sc1C(=O)N[C@H]1CCCNC1` [AZD7762] + CS(=O)(=O)N1CCN(Cc2cc3nc(-c4cccc5[nH]ncc45)nc(N4CCOCC4)c3s2)CC1 [Pictilisib] (partner 1 µM)?
A: relative viability (A549; first compound 0.01 µM): 0.548; relative viability (A549; first compound 0.03162 µM): 0.587; relative viability (A549; first compound 0.1 µM): 0.641; relative viability (A549; first compound 0.3162 µM): 0.368; relative viability (A549; first compound 1 µM): 0.107; relative viability (Calu-6; first compound 0.01 µM): 0.882; relative viability (Calu-6; first compound 0.03162 µM): 0.875; relative viability (Calu-6; first compound 0.1 µM): 0.691; relative viability (Calu-6; first compound 0.3162 µM): 0.17; relative viability (Calu-6; first compound 1 µM): 0.113; relative viability (EBC-1; first compound 0.01 µM): 0.429; relative viability (EBC-1; first compound 0.03162 µM): 0.447; relative viability (EBC-1; first compound 0.1 µM): 0.375; relative viability (EBC-1; first compound 0.3162 µM): 0.28; relative viability (EBC-1; first compound 1 µM): 0.166; relative viability (HCC-15; first compound 0.01 µM): 0.713; relative viability (HCC-15; first compound 0.03162 µM): 0.792; relative viability (HCC-15; first compound 0.1 µM): 0.875; relative viability (HCC-15; first compound 0.3162 µM): 0.789; relative viability (HCC-15; first compound 1 µM): 0.824; relative viability (IA-LM; first compound 0.01 µM): 0.48; relative viability (IA-LM; first compound 0.03162 µM): 0.456; relative viability (IA-LM; first compound 0.1 µM): 0.538; relative viability (IA-LM; first compound 0.3162 µM): 0.48; relative viability (IA-LM; first compound 1 µM): 0.0832; relative viability (LCLC-103H; first compound 0.01 µM): 0.659; relative viability (LCLC-103H; first compound 0.03162 µM): 0.609; relative viability (LCLC-103H; first compound 0.1 µM): 0.574; relative viability (LCLC-103H; first compound 0.3162 µM): 0.629; relative viability (LCLC-103H; first compound 1 µM): 0.514; relative viability (NCI-H1299; first compound 0.01 µM): 0.98; relative viability (NCI-H1299; first compound 0.03162 µM): 0.882; relative viability (NCI-H1299; first compound 0.1 µM): 0.622; relative viability (NCI-H1299; first compound 0.3162 µM): 0.248; relative viability (NCI-H1299; first compound 1 µM): 0.116; relative viability (NCI-H1703; first compound 0.01 µM): 0.234; relative viability (NCI-H1703; first compound 0.03162 µM): 0.252; relative viability (NCI-H1703; first compound 0.1 µM): 0.224; relative viability (NCI-H1703; first compound 0.3162 µM): 0.189; relative viability (NCI-H1703; first compound 1 µM): 0.129; relative viability (UMC-11; first compound 0.01 µM): 0.753; relative viability (UMC-11; first compound 0.03162 µM): 0.768; relative viability (UMC-11; first compound 0.1 µM): 0.848; relative viability (UMC-11; first compound 0.3162 µM): 0.679; relative viability (UMC-11; first compound 1 µM): 0.393

Q: For `NC(=O)Nc1cc(-c2cccc(F)c2)sc1C(=O)N[C@H]1CCCNC1` [AZD7762] + C[C@@H](Oc1cc(-c2cnn(C3CCNCC3)c2)cnc1N)c1c(Cl)ccc(F)c1Cl [Crizotinib] (partner 1 µM), which relative viability (A549; first compound 0.01 µM) is on record?
A: The relative viability was 0.795.

Q: And the relative viability (A549; first compound 0.03162 µM)?
A: The relative viability was 0.821.

Q: And the relative viability (A549; first compound 0.1 µM)?
A: The relative viability was 0.775.

Q: What about the relative viability (A549; first compound 0.3162 µM) of the same compound?
A: The relative viability was 0.424.

Q: What about the relative viability (A549; first compound 1 µM) of the same compound?
A: The relative viability was 0.0696.

Q: What about the relative viability (Calu-6; first compound 0.01 µM) of the same compound?
A: Its relative viability is 0.897.

Q: What about the relative viability (Calu-6; first compound 0.03162 µM) of the same compound?
A: Its relative viability is 0.813.

Q: What about the relative viability (Calu-6; first compound 0.1 µM) of the same compound?
A: Its relative viability is 0.651.

Q: What about the relative viability (Calu-6; first compound 0.3162 µM) of the same compound?
A: The relative viability was 0.162.

Q: And the relative viability (Calu-6; first compound 1 µM)?
A: The relative viability was 0.0886.

Q: And the relative viability (EBC-1; first compound 0.01 µM)?
A: Its relative viability is 0.199.

Q: What about the relative viability (EBC-1; first compound 0.03162 µM) of the same compound?
A: The relative viability was 0.209.

Q: And the relative viability (EBC-1; first compound 0.1 µM)?
A: Its relative viability is 0.167.

Q: What about the relative viability (EBC-1; first compound 0.3162 µM) of the same compound?
A: Its relative viability is 0.187.

Q: What about the relative viability (EBC-1; first compound 1 µM) of the same compound?
A: Its relative viability is 0.167.

Q: And the relative viability (HCC-15; first compound 0.01 µM)?
A: Its relative viability is 0.948.

Q: What about the relative viability (HCC-15; first compound 0.03162 µM) of the same compound?
A: The relative viability was 0.776.

Q: And the relative viability (HCC-15; first compound 0.1 µM)?
A: The relative viability was 0.818.

Q: And the relative viability (HCC-15; first compound 0.3162 µM)?
A: Its relative viability is 0.774.

Q: What about the relative viability (HCC-15; first compound 1 µM) of the same compound?
A: Its relative viability is 0.825.

Q: What about the relative viability (IA-LM; first compound 0.01 µM) of the same compound?
A: Its relative viability is 1.04.

Q: What about the relative viability (IA-LM; first compound 0.03162 µM) of the same compound?
A: Its relative viability is 0.907.

Q: And the relative viability (IA-LM; first compound 0.1 µM)?
A: Its relative viability is 1.26.

Q: What about the relative viability (IA-LM; first compound 0.3162 µM) of the same compound?
A: Its relative viability is 0.858.

Q: What about the relative viability (IA-LM; first compound 1 µM) of the same compound?
A: Its relative viability is 0.277.

Q: And the relative viability (LCLC-103H; first compound 0.01 µM)?
A: Its relative viability is 1.15.

Q: What about the relative viability (LCLC-103H; first compound 0.03162 µM) of the same compound?
A: The relative viability was 0.994.

Q: What about the relative viability (LCLC-103H; first compound 0.1 µM) of the same compound?
A: The relative viability was 1.08.

Q: What about the relative viability (LCLC-103H; first compound 0.3162 µM) of the same compound?
A: Its relative viability is 1.01.

Q: What about the relative viability (LCLC-103H; first compound 1 µM) of the same compound?
A: Its relative viability is 1.04.

Q: And the relative viability (NCI-H1299; first compound 0.01 µM)?
A: The relative viability was 0.966.

Q: What about the relative viability (NCI-H1299; first compound 0.03162 µM) of the same compound?
A: Its relative viability is 0.975.

Q: And the relative viability (NCI-H1299; first compound 0.1 µM)?
A: The relative viability was 0.974.

Q: What about the relative viability (NCI-H1299; first compound 0.3162 µM) of the same compound?
A: The relative viability was 0.826.

Q: What about the relative viability (NCI-H1299; first compound 1 µM) of the same compound?
A: Its relative viability is 0.307.

Q: What about the relative viability (NCI-H1703; first compound 0.01 µM) of the same compound?
A: The relative viability was 0.314.

Q: What about the relative viability (NCI-H1703; first compound 0.03162 µM) of the same compound?
A: The relative viability was 0.169.

Q: And the relative viability (NCI-H1703; first compound 0.1 µM)?
A: Its relative viability is 0.136.

Q: And the relative viability (NCI-H1703; first compound 0.3162 µM)?
A: Its relative viability is 0.0849.

Q: And the relative viability (NCI-H1703; first compound 1 µM)?
A: Its relative viability is 0.105.

Q: What about the relative viability (UMC-11; first compound 0.01 µM) of the same compound?
A: Its relative viability is 0.713.

Q: What about the relative viability (UMC-11; first compound 0.03162 µM) of the same compound?
A: The relative viability was 0.421.

Q: And the relative viability (UMC-11; first compound 0.1 µM)?
A: The relative viability was 0.516.

Q: And the relative viability (UMC-11; first compound 0.3162 µM)?
A: Its relative viability is 0.508.

Q: And the relative viability (UMC-11; first compound 1 µM)?
A: Its relative viability is 0.142.
